# According to patent publication US12365696B2, “Small-molecule focal adhesion kinase (FAK) inhibitors” (DANA-FARBER CANCER INSTITUTE, INC., priority 2019, dated 2025):
# What was measured:
# EGFR(G719S) = EGFR(G719S) (Homo sapiens (Human), UniProt P00533, G719S); assay: KINOMEscan; type: binding; details: 10000 nM, read-out: Percent Control
# FLT3(D835Y) = FLT3(D835Y) (Homo sapiens (Human), UniProt P36888, D835Y); assay: KINOMEscan; type: binding; details: 10000 nM, read-out: Percent Control
# HPK1 = HPK1 (Homo sapiens (Human), UniProt Q92918); assay: KINOMEscan; type: binding; details: HPK1, 10000 nM; read-out: Percent Control
# MDA-MB-231 cells = assay: ultra-low adherent 3D-spheroid suspension cell viability (3D Cell Titer-Glo), 120 hours; type: cell-based; details: Homo sapiens
# Description: For ultra-low adherent 3D-spheroid suspensions, MDA-MB-231 cells were plated in 384-well format in media containing 10% Matrigel® and allowed to form spheroids overnight. Cells were treated with indicated molecules from compound stock plates using a JANUS® Workstation pin tool for 120 hours. To measure cell viability, 3D Cell Titer-Glo® was added to wells for 15 minutes at room temperature and luminescence was measured on an EnVision™ 2104 Multilabel Plate Reader.
# PCTK1 = PCTK1 (Homo sapiens (Human), UniProt Q00536); assay: KINOMEscan; type: binding; details: PCTK1, 10000 nM; read-out: Percent Control
# PCTK1, sequence (Q00536 whole entry): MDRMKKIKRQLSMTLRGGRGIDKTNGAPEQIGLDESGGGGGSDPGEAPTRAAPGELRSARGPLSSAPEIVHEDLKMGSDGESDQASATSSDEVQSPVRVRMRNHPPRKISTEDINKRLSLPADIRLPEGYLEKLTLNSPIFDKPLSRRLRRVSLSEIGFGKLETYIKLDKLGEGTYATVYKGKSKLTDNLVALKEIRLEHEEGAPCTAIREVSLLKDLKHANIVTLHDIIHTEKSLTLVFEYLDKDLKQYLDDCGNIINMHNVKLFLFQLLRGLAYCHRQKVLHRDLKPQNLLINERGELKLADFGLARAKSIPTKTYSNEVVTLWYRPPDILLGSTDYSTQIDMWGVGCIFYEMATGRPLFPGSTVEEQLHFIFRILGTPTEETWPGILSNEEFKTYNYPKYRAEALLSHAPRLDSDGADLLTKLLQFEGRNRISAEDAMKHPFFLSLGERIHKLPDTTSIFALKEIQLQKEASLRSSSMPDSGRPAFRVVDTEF
# WNK2 = WNK2 (Homo sapiens (Human), UniProt Q9Y3S1); assay: KINOMEscan; type: binding; details: WNK2, 10000 nM; read-out: Percent Control
# WNK2, sequence (Q9Y3S1 whole entry): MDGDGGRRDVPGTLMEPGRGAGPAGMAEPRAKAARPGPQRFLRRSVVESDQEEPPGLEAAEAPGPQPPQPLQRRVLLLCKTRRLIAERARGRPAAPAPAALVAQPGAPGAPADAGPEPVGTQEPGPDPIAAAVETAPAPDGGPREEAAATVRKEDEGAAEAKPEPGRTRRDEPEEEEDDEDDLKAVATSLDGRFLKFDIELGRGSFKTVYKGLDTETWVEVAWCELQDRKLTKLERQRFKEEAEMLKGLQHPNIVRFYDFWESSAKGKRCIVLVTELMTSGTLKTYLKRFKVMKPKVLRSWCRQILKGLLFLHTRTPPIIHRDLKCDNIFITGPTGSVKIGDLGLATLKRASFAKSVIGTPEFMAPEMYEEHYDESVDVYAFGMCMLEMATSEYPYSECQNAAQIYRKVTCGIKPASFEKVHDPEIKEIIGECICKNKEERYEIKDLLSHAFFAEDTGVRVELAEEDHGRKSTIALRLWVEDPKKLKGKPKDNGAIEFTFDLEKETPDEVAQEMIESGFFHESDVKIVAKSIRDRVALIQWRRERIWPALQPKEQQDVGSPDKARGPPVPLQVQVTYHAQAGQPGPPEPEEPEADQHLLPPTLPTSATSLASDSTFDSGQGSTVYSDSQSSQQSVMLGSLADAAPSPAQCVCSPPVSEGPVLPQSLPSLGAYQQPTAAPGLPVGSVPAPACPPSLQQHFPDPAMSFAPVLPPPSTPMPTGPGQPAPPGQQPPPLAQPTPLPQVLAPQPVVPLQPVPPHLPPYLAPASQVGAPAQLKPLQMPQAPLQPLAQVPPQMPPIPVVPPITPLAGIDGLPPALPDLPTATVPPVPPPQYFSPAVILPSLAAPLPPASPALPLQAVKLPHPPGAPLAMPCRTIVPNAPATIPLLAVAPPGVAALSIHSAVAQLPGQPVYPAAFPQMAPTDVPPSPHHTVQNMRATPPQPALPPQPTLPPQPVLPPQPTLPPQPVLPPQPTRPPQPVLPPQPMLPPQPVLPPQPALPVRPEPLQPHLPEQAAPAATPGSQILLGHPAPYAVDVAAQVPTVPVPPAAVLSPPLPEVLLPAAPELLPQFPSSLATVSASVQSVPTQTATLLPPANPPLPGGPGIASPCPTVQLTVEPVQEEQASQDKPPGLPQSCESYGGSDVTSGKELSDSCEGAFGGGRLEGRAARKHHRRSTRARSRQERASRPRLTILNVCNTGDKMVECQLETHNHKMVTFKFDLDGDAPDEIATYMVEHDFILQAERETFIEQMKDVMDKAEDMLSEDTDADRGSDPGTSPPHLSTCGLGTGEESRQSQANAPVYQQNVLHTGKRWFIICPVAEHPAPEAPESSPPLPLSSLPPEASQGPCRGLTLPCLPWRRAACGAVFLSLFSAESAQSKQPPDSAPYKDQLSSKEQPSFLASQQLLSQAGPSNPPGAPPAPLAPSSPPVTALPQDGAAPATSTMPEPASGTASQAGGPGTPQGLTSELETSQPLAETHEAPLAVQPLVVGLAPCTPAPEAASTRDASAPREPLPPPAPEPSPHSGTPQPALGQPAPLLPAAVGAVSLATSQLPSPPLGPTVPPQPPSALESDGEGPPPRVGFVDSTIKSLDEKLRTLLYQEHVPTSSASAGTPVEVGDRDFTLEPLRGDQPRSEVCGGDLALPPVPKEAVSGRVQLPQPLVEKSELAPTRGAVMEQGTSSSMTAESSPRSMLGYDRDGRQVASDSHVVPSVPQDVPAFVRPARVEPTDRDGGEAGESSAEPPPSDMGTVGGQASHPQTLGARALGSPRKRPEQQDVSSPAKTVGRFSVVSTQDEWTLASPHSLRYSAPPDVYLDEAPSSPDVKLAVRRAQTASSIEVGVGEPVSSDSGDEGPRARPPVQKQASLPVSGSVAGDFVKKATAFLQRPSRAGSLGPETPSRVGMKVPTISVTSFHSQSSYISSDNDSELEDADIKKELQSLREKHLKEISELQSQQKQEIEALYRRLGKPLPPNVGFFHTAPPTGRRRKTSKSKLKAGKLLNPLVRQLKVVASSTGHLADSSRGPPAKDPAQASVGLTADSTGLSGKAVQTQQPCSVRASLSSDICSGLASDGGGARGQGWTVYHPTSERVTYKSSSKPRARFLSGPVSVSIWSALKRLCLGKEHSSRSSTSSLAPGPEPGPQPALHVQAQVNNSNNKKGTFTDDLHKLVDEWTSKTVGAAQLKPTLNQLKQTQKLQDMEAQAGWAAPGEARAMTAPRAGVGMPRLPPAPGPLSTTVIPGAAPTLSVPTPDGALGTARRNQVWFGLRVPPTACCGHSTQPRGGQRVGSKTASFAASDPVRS
# MARK3 = MARK3 (Homo sapiens (Human), UniProt P27448); assay: KINOMEscan; type: binding; details: MARK3, 10000 nM; read-out: Percent Control
# MARK3, sequence (P27448 whole entry): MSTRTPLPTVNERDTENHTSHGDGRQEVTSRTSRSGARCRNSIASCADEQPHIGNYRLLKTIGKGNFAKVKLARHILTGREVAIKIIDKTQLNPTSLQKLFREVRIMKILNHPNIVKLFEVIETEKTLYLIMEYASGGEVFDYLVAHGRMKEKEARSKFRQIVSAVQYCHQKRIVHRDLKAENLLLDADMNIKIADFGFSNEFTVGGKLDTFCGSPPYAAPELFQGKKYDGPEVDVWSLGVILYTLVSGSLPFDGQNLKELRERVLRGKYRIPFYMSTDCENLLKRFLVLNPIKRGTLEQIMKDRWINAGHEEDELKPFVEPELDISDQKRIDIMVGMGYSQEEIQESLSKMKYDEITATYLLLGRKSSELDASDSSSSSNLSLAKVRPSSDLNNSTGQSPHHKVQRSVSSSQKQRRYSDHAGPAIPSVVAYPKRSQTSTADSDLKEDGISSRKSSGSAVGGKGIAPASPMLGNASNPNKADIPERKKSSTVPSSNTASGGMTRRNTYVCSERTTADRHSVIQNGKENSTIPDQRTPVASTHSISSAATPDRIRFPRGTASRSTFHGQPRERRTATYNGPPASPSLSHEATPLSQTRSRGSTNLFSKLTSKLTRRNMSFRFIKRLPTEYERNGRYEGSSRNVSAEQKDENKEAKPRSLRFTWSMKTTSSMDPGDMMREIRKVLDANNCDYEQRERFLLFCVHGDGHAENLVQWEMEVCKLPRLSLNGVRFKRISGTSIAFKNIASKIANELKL
# RIOK1 = RIOK1 (Homo sapiens (Human), UniProt Q9BRS2); assay: KINOMEscan; type: binding; details: RIOK1, 10000 nM; read-out: Percent Control
# RIOK1, sequence (Q9BRS2 whole entry): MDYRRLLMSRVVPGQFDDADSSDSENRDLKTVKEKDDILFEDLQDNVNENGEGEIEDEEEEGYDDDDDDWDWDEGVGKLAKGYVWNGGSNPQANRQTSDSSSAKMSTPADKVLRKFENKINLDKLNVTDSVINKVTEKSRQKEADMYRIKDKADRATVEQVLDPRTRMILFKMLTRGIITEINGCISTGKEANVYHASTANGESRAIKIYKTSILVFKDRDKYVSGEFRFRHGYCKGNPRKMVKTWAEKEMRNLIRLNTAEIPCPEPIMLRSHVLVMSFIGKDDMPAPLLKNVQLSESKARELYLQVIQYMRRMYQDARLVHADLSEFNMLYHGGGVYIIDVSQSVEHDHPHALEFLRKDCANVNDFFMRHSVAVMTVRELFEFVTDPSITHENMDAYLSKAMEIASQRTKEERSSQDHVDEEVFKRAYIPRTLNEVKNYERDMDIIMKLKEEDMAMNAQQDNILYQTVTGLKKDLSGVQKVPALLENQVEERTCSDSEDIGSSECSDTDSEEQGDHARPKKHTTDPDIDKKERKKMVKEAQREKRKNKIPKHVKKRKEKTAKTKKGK
# CAMK1B = CAMK1B (Homo sapiens (Human), UniProt Q6P2M8); assay: KINOMEscan; type: binding; details: 10000 nM, read-out: Percent Control
# CAMK1B, sequence (Q6P2M8 whole entry): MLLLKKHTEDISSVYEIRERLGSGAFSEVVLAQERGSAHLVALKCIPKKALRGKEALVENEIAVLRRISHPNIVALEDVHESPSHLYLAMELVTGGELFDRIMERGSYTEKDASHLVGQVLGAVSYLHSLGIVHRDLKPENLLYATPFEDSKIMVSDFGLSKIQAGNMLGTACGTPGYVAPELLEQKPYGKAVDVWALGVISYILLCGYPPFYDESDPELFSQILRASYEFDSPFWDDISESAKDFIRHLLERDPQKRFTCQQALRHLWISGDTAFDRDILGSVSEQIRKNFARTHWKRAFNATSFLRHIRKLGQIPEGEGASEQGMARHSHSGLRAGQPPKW
# FGR = FGR (Homo sapiens (Human), UniProt P09769); assay: KINOMEscan; type: binding; details: 10000 nM, read-out: Percent Control
# LYN = LYN (Homo sapiens (Human), UniProt P07948); assay: KINOMEscan; type: binding; details: 10000 nM, read-out: Percent Control
# LYN, sequence (P07948 whole entry): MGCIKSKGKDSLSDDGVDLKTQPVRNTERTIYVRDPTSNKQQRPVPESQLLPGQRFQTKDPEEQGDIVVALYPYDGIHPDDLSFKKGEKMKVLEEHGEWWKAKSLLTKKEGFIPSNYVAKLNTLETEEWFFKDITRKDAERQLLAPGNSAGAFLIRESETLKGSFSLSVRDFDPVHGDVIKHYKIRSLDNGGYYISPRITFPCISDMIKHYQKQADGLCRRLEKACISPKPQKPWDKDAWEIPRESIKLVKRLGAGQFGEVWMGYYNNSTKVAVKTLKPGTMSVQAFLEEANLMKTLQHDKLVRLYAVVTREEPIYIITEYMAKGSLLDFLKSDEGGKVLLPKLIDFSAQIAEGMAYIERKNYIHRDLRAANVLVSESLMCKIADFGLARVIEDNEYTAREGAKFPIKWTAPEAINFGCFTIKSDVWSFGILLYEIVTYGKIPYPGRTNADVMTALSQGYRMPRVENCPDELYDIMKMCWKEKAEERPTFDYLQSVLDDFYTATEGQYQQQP
# AAK1 = AAK1 (Homo sapiens (Human), UniProt Q2M2I8); assay: KINOMEscan; type: binding; details: AAK1, 10000 nM; read-out: Percent Control
# STK33 = STK33 (Homo sapiens (Human), UniProt Q9BYT3); assay: Biochemical IC50 (Invitrogen) of off-targets
# DCLK1 = DCLK1 (Homo sapiens (Human), UniProt O15075); assay: Biochemical IC50 (Invitrogen) of off-targets
# DCLK2 = DCLK2 (Homo sapiens (Human), UniProt Q8N568); assay: Biochemical IC50 (Invitrogen) of off-targets
# PLK1 = PLK1 (Homo sapiens (Human), UniProt P53350); assay: Biochemical IC50 (Invitrogen) of off-targets
# TNK1 = TNK1 (Homo sapiens (Human), UniProt Q13470); assay: Biochemical IC50 (Invitrogen) of off-targets
SMILES,remaining binding at 10 µM (EGFR(G719S)) [%],remaining binding at 10 µM (FLT3(D835Y)) [%],remaining binding at 10 µM (HPK1) [%],IC50 (MDA-MB-231 cells) [µM],remaining binding at 10 µM (PCTK1) [%],remaining binding at 10 µM (WNK2) [%],remaining binding at 10 µM (MARK3) [%],remaining binding at 10 µM (RIOK1) [%],remaining binding at 10 µM (CAMK1B) [%],remaining binding at 10 µM (FGR) [%],remaining binding at 10 µM (LYN) [%],remaining binding at 10 µM (AAK1) [%],IC50 (STK33) [µM],IC50 (DCLK1) [µM],IC50 (DCLK2) [µM],IC50 (PLK1) [µM],IC50 (TNK1) [µM]
"COc1cc(N2CCC(N3CCN(C)CC3)CC2)ccc1Nc1ncc2c(n1)N(C)c1sc(C)nc1C(=O)N2 [Compound 3, 6-((2-methoxy-4-(4-(4-methylpiperazin-1-yl)piperidin-1-yl)phenyl)amino)-2,4-dimethyl-4,9-dihydro-10H-pyrimido[5,4-b]thiazolo[5,4-e][1,4]diazepin-10-one]",48,76,68,6.8,100,74,96,62,95,77,69,48,,,,,
"COc1cc(N2CCC(N3CCN(C)CC3)CC2)ccc1Nc1ncc2c(n1)N(C)c1sc(C)nc1C(=O)N2C [Compound 5, 6-((2-methoxy-4-(4-(4-methylpiperazin-1-yl)piperidin-1-yl)phenyl)amino)-2,4,9-trimethyl-4,9-dihydro-10H-pyrimido[5,4-b]thiazolo[5,4-e][1,4]diazepin-10-one]",100,91,100,,100,100,81,100,92,100,100,,2.13,6.5,3.12,8.28,3.17
